Data published in patent US20170152239A1, “BENZAMIDE AND HETEROBENZAMIDE COMPOUNDS” (PFIZER INC., priority 2012, published 2017).

The molecules below were run against WT EZH2 (EZH2 4 protein complex: EZH2, EED, SUZ12, RbAp48) (Homo sapiens, UniProt O75530+Q09028+Q15022+Q15910) (assay: WT EZH2 nucleosome assay). Settings: nucleosome assay, 5 nM EZH2 4-protein complex, 1.5 μM SAM; read-out: WT EZH2 IC50.
Assay type: biochemical
Summary of the method: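 Radiometric methyltransferase assay: 5 nM EZH2 four-protein complex, 1.5 μM 3H-SAM, 25 μg/mL HeLa oligonucleosomes, 50 nM recombinant H1 in 100 mM Tris pH 8.5, 4 mM DTT, 0.01% Tween-20. 60 min reaction, TCA quench, filter capture, scintillation counting; IC50 from 11-point 4-parameter fit; % effect at 20 μM.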

Chain of WT EZH2 (EZH2 4 protein complex: EZH2, EED, SUZ12, RbAp48) (Q15910 whole entry): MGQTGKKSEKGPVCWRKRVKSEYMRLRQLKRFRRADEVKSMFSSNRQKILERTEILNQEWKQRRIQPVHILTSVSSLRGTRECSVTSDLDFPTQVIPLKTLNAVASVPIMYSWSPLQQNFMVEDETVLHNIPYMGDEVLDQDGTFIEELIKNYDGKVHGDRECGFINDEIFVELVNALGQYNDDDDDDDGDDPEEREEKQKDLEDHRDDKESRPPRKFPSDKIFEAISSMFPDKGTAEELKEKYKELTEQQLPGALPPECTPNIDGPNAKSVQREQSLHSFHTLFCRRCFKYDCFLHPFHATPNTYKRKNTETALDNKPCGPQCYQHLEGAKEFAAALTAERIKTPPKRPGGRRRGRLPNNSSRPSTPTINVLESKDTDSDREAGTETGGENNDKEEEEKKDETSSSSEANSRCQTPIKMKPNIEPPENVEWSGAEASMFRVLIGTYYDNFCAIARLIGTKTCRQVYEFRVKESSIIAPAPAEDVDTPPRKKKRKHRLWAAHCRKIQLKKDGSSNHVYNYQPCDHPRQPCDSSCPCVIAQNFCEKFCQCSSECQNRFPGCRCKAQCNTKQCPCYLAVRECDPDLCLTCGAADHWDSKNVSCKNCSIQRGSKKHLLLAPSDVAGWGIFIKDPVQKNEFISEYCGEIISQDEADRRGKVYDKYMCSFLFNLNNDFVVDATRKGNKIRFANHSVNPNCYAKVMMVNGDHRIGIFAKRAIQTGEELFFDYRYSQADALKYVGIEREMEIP
Chain of WT EZH2 (EZH2 4 protein complex: EZH2, EED, SUZ12, RbAp48) (O75530 whole entry partner): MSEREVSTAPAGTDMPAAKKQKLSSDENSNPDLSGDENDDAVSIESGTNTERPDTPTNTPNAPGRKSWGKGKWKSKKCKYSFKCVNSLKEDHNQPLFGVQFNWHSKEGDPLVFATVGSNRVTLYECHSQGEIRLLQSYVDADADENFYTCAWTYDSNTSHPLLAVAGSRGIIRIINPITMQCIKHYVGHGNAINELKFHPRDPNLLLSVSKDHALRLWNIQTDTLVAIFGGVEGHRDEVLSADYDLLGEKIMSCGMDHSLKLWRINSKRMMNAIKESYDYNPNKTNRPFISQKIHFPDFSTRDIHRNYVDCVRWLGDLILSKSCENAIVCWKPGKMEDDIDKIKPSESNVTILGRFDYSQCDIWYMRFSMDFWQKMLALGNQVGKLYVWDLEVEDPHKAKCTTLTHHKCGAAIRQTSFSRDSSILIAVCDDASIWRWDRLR
Chain of WT EZH2 (EZH2 4 protein complex: EZH2, EED, SUZ12, RbAp48) (Q15022 whole entry partner): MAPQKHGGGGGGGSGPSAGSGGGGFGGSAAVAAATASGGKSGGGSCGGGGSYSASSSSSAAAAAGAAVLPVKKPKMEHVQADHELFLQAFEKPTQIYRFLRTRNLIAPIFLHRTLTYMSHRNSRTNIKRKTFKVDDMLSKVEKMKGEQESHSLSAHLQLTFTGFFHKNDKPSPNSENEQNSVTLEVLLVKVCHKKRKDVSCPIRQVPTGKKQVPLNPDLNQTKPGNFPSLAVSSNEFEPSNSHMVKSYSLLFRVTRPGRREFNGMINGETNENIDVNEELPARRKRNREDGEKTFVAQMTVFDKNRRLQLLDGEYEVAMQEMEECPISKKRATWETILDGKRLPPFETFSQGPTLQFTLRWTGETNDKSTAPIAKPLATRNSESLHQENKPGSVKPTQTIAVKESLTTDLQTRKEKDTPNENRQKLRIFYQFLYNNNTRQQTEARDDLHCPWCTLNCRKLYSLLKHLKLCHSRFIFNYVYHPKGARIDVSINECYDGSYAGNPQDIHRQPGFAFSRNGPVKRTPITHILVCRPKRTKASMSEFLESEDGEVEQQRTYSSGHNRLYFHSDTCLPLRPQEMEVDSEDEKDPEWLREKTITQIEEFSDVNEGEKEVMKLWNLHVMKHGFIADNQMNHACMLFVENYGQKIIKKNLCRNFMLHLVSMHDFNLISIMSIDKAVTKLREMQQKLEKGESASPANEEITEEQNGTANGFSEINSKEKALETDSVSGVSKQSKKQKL
Chain of WT EZH2 (EZH2 4 protein complex: EZH2, EED, SUZ12, RbAp48) (Q09028 whole entry partner): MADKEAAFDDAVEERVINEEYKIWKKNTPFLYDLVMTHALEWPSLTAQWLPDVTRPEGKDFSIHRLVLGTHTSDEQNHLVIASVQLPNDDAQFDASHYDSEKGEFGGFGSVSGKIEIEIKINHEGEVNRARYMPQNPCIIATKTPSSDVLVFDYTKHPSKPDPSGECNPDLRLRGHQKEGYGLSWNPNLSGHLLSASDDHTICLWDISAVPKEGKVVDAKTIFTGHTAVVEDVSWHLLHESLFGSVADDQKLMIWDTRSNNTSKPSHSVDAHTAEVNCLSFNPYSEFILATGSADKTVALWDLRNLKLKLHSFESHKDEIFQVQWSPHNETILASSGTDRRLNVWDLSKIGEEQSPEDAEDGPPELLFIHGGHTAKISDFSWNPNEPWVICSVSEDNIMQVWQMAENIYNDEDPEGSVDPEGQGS

SMILES	IC50 [µM]
Cc1cc(C)c(CNC(=O)c2ncnc(N3CC[C@H]4C[C@H]43)c2C)c(=O)[nH]1 [Example 136, 6-[(1R,5S)-2-azabicyclo[3.1.0]hex-2-yl]-N-[(4,6-dimethyl-2-oxo-1,2-dihydropyridin-3-yl)methyl]-5-methyl-pyrimidine-4-carboxamide]	161
CC(C)Oc1cccc(C(=O)NCc2ccc[nH]c2=O)c1Cl [Example 139, 2-chloro-3-isopropoxy-N-[(2-oxo-1,2-dihydropyridin-3-yl)methyl]benz-amide]	> 200
COc1ccc(OC)c(C(=O)NCc2c(C)cc(C)[nH]c2=O)c1OC [Example 140, N-[(4,6-dimethyl-2-oxo-1,2-dihydropyridin-3-yl)methyl]-2,3,6-trimethoxy-benzamide]	> 200
Cc1ccc(CNC(=O)c2nc(C3CC3)nc(-c3ccnn3C)c2C)c(=O)[nH]1 [Example 141, 2-cyclopropyl-5-methyl-N-[(6-methyl-2-oxo-1,2-dihydropyridin-3-yl)methyl]-6-(1-methyl-1H-pyrazol-5-yl)pyrimidine-4-carboxamide]	> 200
Cc1cc(C(F)(F)F)[nH]c(=O)c1CNC(=O)c1cc(Cl)cc(-c2ccnn2C)c1C [Example 142, 5-chloro-2-methyl-N-{[4-methyl-2-oxo-6-(trifluoromethyl)-1,2-dihydropyridin-3-yl]methyl}-3-(1-methyl-1H-pyrazol-5-yl)benzamide]	> 200
CC(=O)N[C@H]1CCN(c2ncnc(C(=O)NCc3c(C)cc(C)[nH]c3=O)c2C)C1 [Example 143, 6-[(3S)-3-azetamido-pyrrolidin-1-yl]-N-[(4,6-dimethyl-2-oxo-1,2-dihydropyridin-3-yl)methyl]-5-methylpyrimidine-4-carboxamide]	> 200
Cc1cc(C)c(CNC(=O)c2ncnc(N3CCC[C@@H]3c3ccccn3)c2C)c(=O)[nH]1 [Example 144, N-[(4,6-dimethyl-2-oxo-1,2-dihydropyridin-3-yl)methyl]-5-methyl-6-[(2R)-2-pyridin-2-ylpyrrolidin-1-yl]pyrimidine-4-carboxamide]	> 200
Cc1cc(C)c(CNC(=O)c2ncnc(N3CCC[C@@H]3C(N)=O)c2C)c(=O)[nH]1 [Example 145, 6-[(2R)-2-carbamoyl-pyrrolidin-1-yl]-N-[(4,6-dimethyl-2-oxo-1,2-dihydropyridin-3-yl)methyl]-5-methylpyrimi-dine-4-carboxamide]	> 200
Cc1noc([C@H]2CCCN2c2ncnc(C(=O)NCc3c(C)cc(C)[nH]c3=O)c2C)n1 [Example 146, N-[(4,6-dimethyl-2-oxo-1,2-dihydropyridin-3-yl)methyl]-5-methyl-6-[(2R)-2-(3-methyl-1,2,4-oxadiazol-5-yl)pyrrolidin-1-yl]pyrimidine-4-carboxamide]	> 200
CCn1ncc(C)c1-c1cccc(C(=O)NCc2c(C)c(Cl)c(C)[nH]c2=O)c1C [Example 148, N-[(5-chloro-4,6-dimethyl-2-oxo-1,2-dihydropyridin-3-yl)methyl]-3-(1-ethyl-4-methyl-1H-pyrazol-5-yl)-2-methyl-benzamide]	> 200
